Converted amounts (≈) assume the structure as drawn.
Experiments:
[1] = Characterization of polymorphs and pseudo-polymorphs of Compound 5; assay type: physicochemical
[2] = Approximate solubility of Compound 5 polymorphs in EtOH:DCM (v:v=1:4); assay type: physicochemical; conditions: EtOH:DCM (v:v = 1:4), 25° C.
Experimental: Four polymorphs (Form V, Form VI, Form VII and Form VIII) were weighed respectively and a suitable amount of solvent mixture EtOH:DCM (v:v=1:4) was added. The obtained samples were stirred at a rate of 400 rpm at 25° C.

[3] = Bulk stability of Compound 5 Form VI and Form VIII at 25° C./60% RH, open container, 1 week (XRPD, HPLC, color); assay type: physicochemical; conditions: listed as Form VIII
Experimental: Compound 5 Form VI and Form VIII were placed at 25° C./60% RH in an open container over 1 week. Samples after the stress were characterized by XRPD and HPLC and inspected for color change.

[4] = Solubility of Compound 5 Form VI and Form VIII at 25° C., equilibration for 24 hours (HPLC; XRPD of residual solids); assay type: physicochemical
Experimental: 11 mg (for 20 mg/mL target concentration) or 22 mg (for 50-60 mg/mL target concentration) of Compound 5 Form VI and Form VIII (equivalent to 10 mg or 20 mg of anhydrate free base) was weighed into a 4 mL glass vial, respectively. Up to 0.5 mL of potential eluent medium was added. The obtained suspensions/solutions were stirred at 25° C. at 400 rpm for 24 hours and then centrifuged at 25° C. at 14,000 rpm for 5 minutes. The residual solids were characterized by XRPD to determine the physical form. The supernatants (0.1 mL) were evaporated at about 22-25° C./30-60% RH.

[5] = Crystallization of Compound 1 at room temperature by slow evaporation (XRPD); assay type: physicochemical; conditions: 25° C./92% RH for 2 days
Experimental: About 20 mg of Compound 1 Form I (free form) was dissolved and filtered by 0.45 μm nylon filter. Obtained solutions were evaporated slowly at ambient condition. Solid residues were examined for their polymorphic form.

[6] = Scale-up experiment (200 mg) and characterization of new polymorphs of Compound 1; assay type: physicochemical; conditions: for X-ray diffraction: 3-40° (2 theta), XRPD method 1; for Thermogravimetry weight loss / water corresponding to TGA weight loss: TGA
Experimental: Scale-up 1: About 200 mg of Compound 1 Form I was dissolved in 10 mL THF/Water (95:5, v:v) at 40° C. […] Compound 1 Form IV was obtained. It was subjected to characterization.
Scale-up 2: About 200 mg of Compound 1 Form I was dissolved in 10 mL THF/Water (95:5, v:v) at 40° C. […] It was subjected to characterization.

[7] = Competitive equilibration experiment of Compound 1 Form I and Form IV for 1 week; assay type: physicochemical; conditions: for XRPD / form obtained in competitive equilibration: 1 week; for form obtained in competitive equilibration: 25° C.
Experimental: About 10 mg of Compound 1 Form I and 10 mg Compound 1 Form IV were added to 0.8 mL saturated solution in selected solvent. Obtained suspensions were stirred at 400 rpm and 25° C. for 1 week. Solids obtained were separated by filtration and characterized by XRPD.

[8] = test system: OCI-LY10 human DLBCL intracranial xenografts; assay: OCI-LY10 human DLBCL intracranial xenograft study, survival; conditions: for Median Survival (Days), ± SEM / Survival time extension (%): Rituximab, i.v., QW
Experimental: Agents were tested in the OCI-LY10 human DLBCL intracranial model. […] Rituximab was administered from day 1 via i.v. once per week. Rituximab was dosed at 10 and 30 mg/kg. Individual mouse was euthanized once its body weight loss was over 20%.
The cells growing in an exponential growth phase were harvested and counted for tumor inoculation.
99 CB17 SCID mice were inoculated by intracranial injection with OCI-LY10 cells (1×10^6) for tumor development.
Tumor inoculation: Intraperitoneally injected avertin at dosage of 240 mg/kg to anaesthetize the CB17 SCID mice. Fixed the head of the anaesthetized mice to the brain solid positioner, sterilized the head skin with 70% alcohol. […] Punched a hole about 2 mm right of the anterior fontanel and 1 mm ahead the coronal on the skull with a 25 G needle. Cell suspensions were mixed and certain amount was sucked into the 5 μL injector slowly to avoid bubble formation. The cells were swapped around the needle with alcohol to avoid extracranial tumor genesis. The needle was stuck vertically into the formed hold and 5 μL of cell suspension containing 1×10^6 OCI-LY10 cells was slowly injected for over 1 minute. The injector was then held for another 1 minute and then pulled back to decrease the drainage of the cells suspension. The skin was closed with tweezers and then sewed. Meloxicam was then injected 30 min after the surgery at dosage of 5 mg/kg to relieve the pain. The animals were kept under monitoring until they were awake.
Animals were grouped for treatment on day 7 after tumor inoculation.
At the time of routine monitoring, the animals were daily checked for any effects of tumor growth and treatments on normal behavior such as mobility, food and water consumption (by looking only), body weight gain/loss (body weights were measured twice weekly), eye/hair matting and any other abnormal effect as stated in the protocol. Death and observed clinical signs were recorded on the basis of the numbers of animals within each subset.

[9] = THF/water (v:v = 1:2.5), 25° C., 24 hours, target conc. 20 mg/mL, listed as Form VIII

Q: With O=C1CCC(N2C(=O)c3cccc4c(Cc5ccc(CN6CCOCC6)cc5)ccc2c34)C(=O)N1 (racemic) [Compound 5 Form VIII] as the compound, how does the “Dehydration and evaporation of solvent from (by DSC)” value ([1]; DSC) read?
A: Its value is “about 8° C.;”.

Q: What about the “Enthalpy (by DSC)” value ([1]; DSC, listed as Form VIII) of the same compound?
A: Its value is 105 J/g.

Q: And the “Melting onset Tonset (by DSC)” value ([1]; DSC, listed as Form VIII)?
A: Its value is “Tonset 231.4° C.,”.

Q: What about the “Weight loss (by TGA)” value ([1]; at 200° C.) of the same compound?
A: The value was 4.7% at 200 °C.

Q: And the “Residual ion (by IC): Br−” value ([1]; listed as Form VIII)?
A: Its value is “Br^−: 0.01 equiv”.

Q: And the “Residual ion (by IC): Cl−” value ([1]; listed as Form VIII)?
A: Its value is “Cl^−: 0.005 equiv.;”.

Q: And the “Residual ion (by IC): Li+” value ([1]; listed as Form VIII)?
A: Its value is “Li^+: 0.04 equiv.;”.

Q: What about the “Residual ion (by IC): Na+” value ([1]; listed as Form VIII) of the same compound?
A: Its value is “Na^+: 0.01 equiv”.

Q: And the “Approximate solubility (visual appearance)” value ([2]; concentration 10 mg/mL, listed as Form VIII)?
A: The value was “Few solids”.

Q: And the “Approximate solubility (visual appearance)” value ([2]; concentration 20 mg/mL, listed as Form VIII)?
A: The value was “Few solids”.

Q: And the “bulk stability, physical (form)” value [3]?
A: Its value is “converted to Form V”.

Q: What about the “Bulk (HPLC) Purity” value ([3]; solid state, initial purity 93.1% (Form VI), 95.6% (Form VIII)) of the same compound?
A: The value was 95.6%.

Q: What about the “Bulk (XRPD)” value ([3]; solid state) of the same compound?
A: Its value is “Form V”.

Q: And the “solubility” value ([4]; EtOH/DCM (v:v = 1:4), 25° C., 24 hours, target conc. 50-60 mg/mL, LOQ 0.8 μg/mL, listed as Form VIII)?
A: Its value is 39 mg/mL (≈ 83.1 mM).

Q: And the “physical form after solubility test” value ([4]; EtOH:DCM (v:v=1:4), 25° C., 24 h)?
A: Its value is “Physical mixture of Form V and Form VI”.

Q: What about the “XRPD of residual solids” value ([4]; MeOH/DCM (v:v = 1:2), 25° C., 24 hours, target conc. 50-60 mg/mL) of the same compound?
A: Its value is “Form V”.

Q: And the “physical form after solubility test” value ([4]; MeOH:DCM (v:v=1:2) and THF:water (v:v=1:2.5), 25° C., 24 h)?
A: The value was “converted to Form V”.

Q: And the “solubility” value ([4]; THF/IPA (v:v = 1:2), 25° C., 24 hours, target conc. 20 mg/mL, listed as Form VIII)?
A: Its value is 1 mg/mL (≈ 2.13 mM).

Q: And the “XRPD of residual solids” value [4, 9]?
A: Its value is “Form V”.

Q: What about the “solubility” value [4, 9] of the same compound?
A: Its value is 0.5 mg/mL (≈ 1.06 mM).

Q: What about the “physical form after solubility test” value ([4]; THF:2-propanol (v:v=1:2) and THF:Heptane (v:v=1:2), 25° C., 24 h) of the same compound?
A: Its value is “converted to Form VI”.

Q: What about the solubility ([4]; in EtOH/DCM (v:v=1:4), about 25° C., 24 h, listed as Form VIII) of the same compound?
A: The solubility was about 39 mg/mL (≈ 83.1 mM).

Q: And the solubility ([4]; in MeOH:DCM (v:v=1:2) and EtOH:DCM (v:v=1:4), 25° C. for 24 h, listed as Form VIII)?
A: Its solubility is 30 to 40 mg/mL.

Q: Which results are given for O=C1CCC(N2C(=O)c3cccc4c(Cc5ccc(CN6CCOCC6)cc5)ccc2c34)C(=O)N1 (racemic) [Compound 5 Form VII]?
A: Residual solvent (by 1H-NMR): NMP ([1]; 2 unknown peaks): 1.6 equiv. NMP;; Approximate solubility (visual appearance) ([2]; concentration 10 mg/mL, listed as Form VII): Suspension; Approximate solubility (visual appearance) ([2]; concentration 20 mg/mL, listed as Form VII): Suspension

Q: With O=C1CC[C@H](N2C(=O)c3cccc4c(Cc5ccc(CN6CCOCC6)cc5)ccc2c34)C(=O)N1 [Compound 1 Form II, (S)-3-(6-(4-(morpholinomethyl)benzyl)-2-oxobenzo[cd]indol-1(2H)-yl)piperidine-2,6-dione] as the compound, how does the “Notes (form stability under humidity)” value [5] read?
A: Its value is “No form change at 25° C./92% RH”.

Q: What about the “Stoichiometry: MeOH” value ([6]; 1H-NMR) of the same compound?
A: Its value is 1.0 equiv.

Q: What about the “Stoichiometry: DCM” value ([6]; 1H-NMR, listed as Form II) of the same compound?
A: Its value is 0.3% DCM and.

Q: And the X-ray diffraction ([6]; listed as Form II)?
A: Its X-ray diffraction is “Crystalline”.

Q: What about the “Form change at 25° C./92% RH” value ([6]; 25° C./92% RH for 2 days) of the same compound?
A: Its value is “No form change”.

Q: What about the “DSC: Methanol desolvation” value ([6]; DSC, 10° C./min) of the same compound?
A: The value was “at 103.1 °C”.

Q: What about the Thermogravimetry weight loss ([6]; 10° C./min, at 125° C.) of the same compound?
A: Its Thermogravimetry weight loss is “About 7.1%”.

Q: With O=C1CC[C@H](N2C(=O)c3cccc4c(Cc5ccc(CN6CCOCC6)cc5)ccc2c34)C(=O)N1 [Compound 1 Form III, (S)-3-(6-(4-(morpholinomethyl)benzyl)-2-oxobenzo[cd]indol-1(2H)-yl)piperidine-2,6-dione] as the compound, how does the X-ray diffraction ([6]; listed as Form III) read?
A: Its X-ray diffraction is “Crystalline”.

Q: What about the Thermogravimetry weight loss ([6]; 10° C./min, at 120° C.) of the same compound?
A: Its Thermogravimetry weight loss is “About 5.8%”.

Q: And the “water corresponding to TGA weight loss” value ([6]; 10° C./min, listed as Form III)?
A: The value was 120 °C (1.5 equiv.

Q: With O=C1CC[C@H](N2C(=O)c3cccc4c(Cc5ccc(CN6CCOCC6)cc5)ccc2c34)C(=O)N1 [Compound 1 Form IV, (S)-3-(6-(4-(morpholinomethyl)benzyl)-2-oxobenzo[cd]indol-1(2H)-yl)piperidine-2,6-dione] as the compound, how does the “stability of the form” value ([7]; THF/water systems with high water activity) read?
A: Its value is “stable”.

Q: And the X-ray diffraction ([6]; listed as Form IV)?
A: The X-ray diffraction was “Crystalline”.

Q: What about the Thermogravimetry weight loss ([6]; 10° C./min, at 105° C.) of the same compound?
A: Its Thermogravimetry weight loss is “About 1.3%”.

Q: What about the “water corresponding to TGA weight loss” value ([6]; 10° C./min, listed as Form IV) of the same compound?
A: Its value is 105 °C (0.4 equiv.

Q: With O=C1CC[C@H](N2C(=O)c3cccc4c(Cc5ccc(CN6CCOCC6)cc5)ccc2c34)C(=O)N1 [Form I + Form IV] as the compound, how does the XRPD ([7]; THF/Water (63.9:36.1, v:v), a.w. 1.0, 25° C.) read?
A: The XRPD was “Form IV”.

Q: And the XRPD ([7]; THF/Water (86.9:13.1, v:v), a.w. 0.8, 25° C.)?
A: The XRPD was “Form IV”.

Q: And the XRPD ([7]; THF/Water (92.3:7.7, v:v), a.w. 0.6, 25° C.)?
A: Its XRPD is “Form IV”.

Q: What about the XRPD ([7]; THF/Water (97.0:3.0, v:v), a.w. 0.3, 25° C.) of the same compound?
A: The XRPD was “Form I”.

Q: What about the XRPD ([7]; THF/Water (98.1:1.9, v:v), a.w. 0.2, 25° C.) of the same compound?
A: The XRPD was “Form I”.

Q: And the XRPD ([7]; THF/Water (99.1:0.9, v:v), a.w. 0.1, 25° C.)?
A: The XRPD was “Form I”.

Q: With O=C1CC[C@H](N2C(=O)c3cccc4c(Cc5ccc(CN6CCOCC6)cc5)ccc2c34)C(=O)N1 [Form I and Form IV] as the compound, how does the “form obtained in competitive equilibration” value (from here on “form obtained”) ([7]; DMSO/water system, all selected water activity mixtures) read?
A: The value was “physical mixtures of Form I and Form IV”.

Q: What about the “form obtained” value ([7]; THF/water system, a.w.≤0.3) of the same compound?
A: The value was “Form I (anhydrate)”.

Q: And the “form obtained” value ([7]; THF/water system, water activity (a.w.)≥0.6)?
A: The value was “Form IV (hydrate)”.

Q: With “rituximab: CD20 inhibitor; targeted antibody” as the compound, how does the “Median Survival (Days), ± SEM” value ([8]; 10 mg/kg) read?
A: The value was 17.00 ± 0.46 days.

Q: And the “Survival time extension (%)” value ([8]; 10 mg/kg)?
A: Its value is 21.4%.

Q: What about the “Median Survival (Days), ± SEM” value ([8]; 30 mg/kg) of the same compound?
A: Its value is 16.00 ± 0.94 days.

Q: What about the “Survival time extension (%)” value ([8]; 30 mg/kg) of the same compound?
A: The value was 14.3%.

Q: What about the “extension of survival time” value ([8]; rituximab 10 mg/kg i.v. once per week, p=0.001) of the same compound?
A: The value was 21.4%.

Q: What about the “extension of survival time” value ([8]; rituximab 30 mg/kg i.v. once per week, p=0.085) of the same compound?
A: Its value is 14.3%.
